We go through 18 molecules from patent US8748417B2, “Amino-pyrrolidine-azetidine diamides as monoacylglycerol lipase inhibitors” (Janssen Pharmaceutica, NV, priority 2010, dated 2014).

Some results are limits rather than exact numbers.

Experiment [1] concerns the target T1, purified wild type MGL (wt-MGLL 6H-11-313) (Homo sapiens, UniProt Q99685).
T1 construct: purified wild type MGL (wt-MGLL 6H-11-313)
T1 sequence (Q99685 1-303): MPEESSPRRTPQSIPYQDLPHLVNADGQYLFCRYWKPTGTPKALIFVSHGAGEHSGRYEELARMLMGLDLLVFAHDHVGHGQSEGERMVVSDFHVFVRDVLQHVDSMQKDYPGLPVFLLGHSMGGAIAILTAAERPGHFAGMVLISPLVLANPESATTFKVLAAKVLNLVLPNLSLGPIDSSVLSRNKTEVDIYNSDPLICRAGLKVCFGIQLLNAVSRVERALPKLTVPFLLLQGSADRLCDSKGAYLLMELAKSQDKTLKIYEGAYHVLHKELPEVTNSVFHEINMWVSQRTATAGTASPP
The experiment in a line: MGL enzyme activity assay (4MU-B cleavage), wild type MGL. In kind it is biochemical. Particulars: wild type MGL 5 nM, 4MU-B 10 μM, 37° C.; read-out: MGL wild type inh IC50. In short, it runs like this: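 Enzyme in 20 mM PIPES pH 7.0, 150 mM NaCl, 0.001% Tween 20 with 4MU-B at 10 μM final and MGL at 5 nM final; compounds 17 to 0.0003 μM final, enzyme added last. Fluorescence (ex 335/em 440 nm) followed at 37° C for 5 min; IC50 from fit of fractional activity versus inhibitor concentration.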

The subject of experiment [2] is MGL (rat brain homogenate). Briefly: 2-AG accumulation assay in rat brain homogenate. In kind it is biochemical. Particulars: compound 1 μM, percent of vehicle 2-AG accumulation. As to the method: After a 15-min incubation time at 37° C., CaCl2 (final concentration=10 mM) was added and then incubated for 15 min at 37° C. in a total volume of 5 mL. The reactions were stopped with 6 mL organic solvent extraction solution of 2:1 chloroform/methanol. Accumulated 2-AG in the organic phase was measured by a HPLC/MS method, according to the following equation: percent vehicle=(2-AG accumulation in the presence of compound/2-AG accumulation in vehicle)×100.

One may read the IC50 as the point on the concentration scale where inhibition reaches its midpoint. In the case of `O=C(c1ccc(Cc2cccc(C(F)(F)F)c2)cc1)N1CC(N[C@H]2CCN(C(=O)c3cscn3)C2)C1` [Cpd 127, (3S)-1-(1,3-Thiazol-4-ylcarbonyl)-N-[1-({4-[3-(trifluoromethyl)benzyl]phenyl}carbonyl)azetidin-3-yl]pyrrolidin-3-amine], in experiment [1], the IC50 is under 5 nM. Moreover, the “Rat Brain 2AG % VehCntrl (%) @1 μM” value in experiment [2] worked out at 618%.

Turning to `O=C(c1cscn1)N1CC[C@H](NC2CN(C(=O)c3cc4ccc(-c5ccc(C(F)(F)F)cc5)cc4s3)C2)C1` [Cpd 128, (3S)-1-(1,3-Thiazol-4-ylcarbonyl)-N-[1-({6-[4-(trifluoromethyl)phenyl]-1-benzothiophen-2-yl}carbonyl)azetidin-3-yl]pyrrolidin-3-amine], the IC50 in experiment [1] turned out to be 5 nM. For the same molecule, the “Rat Brain 2AG % VehCntrl (%) @1 μM” value in experiment [2] stood at 491%.

On to `O=C(c1cc2cc(-c3ccccc3)ccc2s1)N1CC(N[C@H]2CCN(C(=O)c3nccs3)C2)C1` [Cpd 129, (3S)-N-{1-[(5-Phenyl-1-benzothiophen-2-yl)carbonyl]azetidin-3-yl}-1-(1,3-thiazol-2-ylcarbonyl)pyrrolidin-3-amine], for which the IC50 in experiment [1] was under 5 nM. Also, the “Rat Brain 2AG % VehCntrl (%) @1 μM” value in experiment [2] is recorded as 590%.

In the case of `O=C(c1cscn1)N1CC[C@H](NC2CN(C(=O)c3cc4cc(-c5cccc(C(F)(F)F)c5)ccc4s3)C2)C1` [Cpd 130, (3S)-1-(1,3-Thiazol-4-ylcarbonyl)-N-[1-({5-[3-(trifluoromethyl)phenyl]-1-benzothiophen-2-yl}carbonyl)azetidin-3-yl]pyrrolidin-3-amine], the IC50 in experiment [1] is under 5 nM. The “Rat Brain 2AG % VehCntrl (%) @1 μM” value in experiment [2] stood at 747%.

For the molecule `O=C(c1cscn1)N1CC[C@H](NC2CN(C(=O)c3cc4cc(-c5ccccc5)ccc4s3)C2)C1` [Cpd 131, (3S)-N-{1-[(5-Phenyl-1-benzothiophen-2-yl)carbonyl]azetidin-3-yl}-1-(1,3-thiazol-4-ylcarbonyl)pyrrolidin-3-amine], the IC50 in experiment [1] was under 5 nM. Also, the “Rat Brain 2AG % VehCntrl (%) @1 μM” value in experiment [2] is on record as 385%.

`O=C(c1cc2cc(-c3cccc(C(F)(F)F)c3)ccc2s1)N1CC(N[C@H]2CCN(C(=O)c3nccs3)C2)C1` [Cpd 132, (3S)-1-(1,3-Thiazol-2-ylcarbonyl)-N-[1-({5-[3-(trifluoromethyl)phenyl]-1-benzothiophen-2-yl}carbonyl)azetidin-3-yl]pyrrolidin-3-amine]: the IC50 in experiment [1] is under 5 nM. The “Rat Brain 2AG % VehCntrl (%) @1 μM” value in experiment [2] is 1233%.

For the molecule `O=C(c1cc2ccc(C(F)(F)F)cc2s1)N1CC(N[C@H]2CCN(C(=O)c3nccs3)C2)C1` [Cpd 138, (3S)-1-(1,3-Thiazol-2-ylcarbonyl)-N-(1-{[6-(trifluoromethyl)-1-benzothiophen-2-yl]carbonyl}azetidin-3-yl)pyrrolidin-3-amine], in experiment [1], the IC50 came out at 16 nM. Also, the “Rat Brain 2AG % VehCntrl (%) @1 μM” value in experiment [2] was 340%.

As for `O=C(c1nccs1)N1CC[C@H](NC2CN(C(=O)c3sc4cc(Br)ccc4c3Cl)C2)C1` [Cpd 140, (3S)-N-{1-[(6-Bromo-3-chloro-1-benzothiophen-2-yl)carbonyl]azetidin-3-yl}-1-(1,3-thiazol-2-ylcarbonyl)pyrrolidin-3-amine], the IC50 in experiment [1] worked out at 12.4 nM. In addition, in experiment [2], the “Rat Brain 2AG % VehCntrl (%) @1 μM” value is listed as 742%.

As to `O=C(c1cscn1)N1CC[C@H](NC2CN(C(=O)c3sc4cc(Br)ccc4c3Cl)C2)C1` [Cpd 141, (3S)-N-{1-[(6-Bromo-3-chloro-1-benzothiophen-2-yl)carbonyl]azetidin-3-yl}-1-(1,3-thiazol-4-ylcarbonyl)pyrrolidin-3-amine], the IC50 in experiment [1] was 19 nM. Further, the “Rat Brain 2AG % VehCntrl (%) @1 μM” value in experiment [2] was found to be 388%.

For the molecule `O=C(c1ccc2c(c1)c(F)cn2-c1ccc(F)cc1)N1CC(N[C@H]2CCN(C(=O)c3ccccc3)C2)C1` [Cpd 142, (3S)-N-(1-{[3-Fluoro-1-(4-fluorophenyl)-1H-indol-5-yl]carbonyl}azetidin-3-yl)-1-(phenylcarbonyl)pyrrolidin-3-amine], the IC50 in experiment [1] turned out to be 56.5 nM. In addition, in experiment [2], the “Rat Brain 2AG % VehCntrl (%) @1 μM” value worked out at 247%.

As for `O=C(c1ccc2c(c1)c(F)cn2-c1ccc(F)cc1)N1CC(N[C@H]2CCN(C(=O)c3cscn3)C2)C1` [Cpd 143, (3S)-N-(1-{[3-Fluoro-1-(4-fluorophenyl)-1H-indol-5-yl]carbonyl}azetidin-3-yl)-1-(1,3-thiazol-4-ylcarbonyl)pyrrolidin-3-amine], the IC50 in experiment [1] came out at 46.5 nM. The “Rat Brain 2AG % VehCntrl (%) @1 μM” value in experiment [2] came to 244%.

As for `O=C(c1ccc(Cc2ccc(C(F)(F)F)cc2)cc1)N1CC(N[C@H]2CCN(C(=O)c3cscn3)C2)C1` [Cpd 144, (3S)-1-(1,3-Thiazol-4-ylcarbonyl)-N-[1-({4-[4-(trifluoromethyl)benzyl]phenyl}carbonyl)azetidin-3-yl]pyrrolidin-3-amine], the IC50 in experiment [1] was under 5 nM. Moreover, the “Rat Brain 2AG % VehCntrl (%) @1 μM” value in experiment [2] is reported as 992%.

On to `O=C(c1ccc(-c2ccc(C(F)(F)F)cc2)cc1)N1CC(N[C@H]2CCN(C(=O)c3cscn3)C2)C1` [Cpd 145, (3S)-1-(1,3-Thiazol-4-ylcarbonyl)-N-(1-{[4′-(trifluoromethyl)biphenyl-4-yl]carbonyl}azetidin-3-yl)pyrrolidin-3-amine], for which the IC50 in experiment [1] was 96.4 nM. In addition, the “Rat Brain 2AG % VehCntrl (%) @1 μM” value in experiment [2] amounted to 193%.

With `O=C(c1nccs1)N1CC[C@H](NC2CN(C(=O)c3sc4cc(-c5ccccc5)ccc4c3Cl)C2)C1` [Cpd 146, (3S)-N-{1-[(3-Chloro-6-phenyl-1-benzothiophen-2-yl)carbonyl]azetidin-3-yl}-1-(1,3-thiazol-2-ylcarbonyl)pyrrolidin-3-amine], the IC50 in experiment [1] was under 5 nM. In experiment [2], the “Rat Brain 2AG % VehCntrl (%) @1 μM” value was 680%.

Regarding `O=C(c1cscn1)N1CC[C@H](NC2CN(C(=O)c3sc4cc(-c5ccccc5)ccc4c3Cl)C2)C1` [Cpd 147, (3S)-N-{1-[(3-Chloro-6-phenyl-1-benzothiophen-2-yl)carbonyl]azetidin-3-yl}-1-(1,3-thiazol-4-ylcarbonyl)pyrrolidin-3-amine], the concentration for half-maximal inhibition (IC50) in experiment [1] is under 5 nM. Moreover, the “Rat Brain 2AG % VehCntrl (%) @1 μM” value in experiment [2] is listed as 506%.

In the case of `O=C(c1nccs1)N1CC[C@H](NC2CN(C(=O)c3sc4cc(-c5cccc(C(F)(F)F)c5)ccc4c3Cl)C2)C1` [Cpd 148, (3S)-N-[1-({3-Chloro-6-[3-(trifluoromethyl)phenyl]-1-benzothiophen-2-yl}carbonyl)azetidin-3-yl]-1-(1,3-thiazol-2-ylcarbonyl)pyrrolidin-3-amine], in experiment [1], the IC50 is under 5 nM. Moreover, the “Rat Brain 2AG % VehCntrl (%) @1 μM” value in experiment [2] turned out to be 942%.

As to `O=C(c1cscn1)N1CC[C@H](NC2CN(C(=O)c3sc4cc(-c5cccc(C(F)(F)F)c5)ccc4c3Cl)C2)C1` [Cpd 149, (3S)-N-[1-({3-Chloro-6-[3-(trifluoromethyl)phenyl]-1-benzothiophen-2-yl}carbonyl)azetidin-3-yl]-1-(1,3-thiazol-4-ylcarbonyl)pyrrolidin-3-amine], in experiment [1], the IC50 is under 5 nM. Further, in experiment [2], the “Rat Brain 2AG % VehCntrl (%) @1 μM” value is given as 811%.

On to `O=C(c1nccs1)N1CC[C@H](NC2CN(C(=O)c3sc4cc(-c5ccc(C(F)(F)F)cc5)ccc4c3Cl)C2)C1` [Cpd 150, (3S)-N-[1-({3-Chloro-6-[4-(trifluoromethyl)phenyl]-1-benzothiophen-2-yl}carbonyl)azetidin-3-yl]-1-(1,3-thiazol-2-ylcarbonyl)pyrrolidin-3-amine], for which the IC50 in experiment [1] is under 5 nM. For the same molecule, in experiment [2], the “Rat Brain 2AG % VehCntrl (%) @1 μM” value was 759%.
